From PMC9154192 (PLoS Biology, 2022) come the findings set out here.

Holding throughout (assay type): cell-based, Mycobacterium tuberculosis
Experiment [1] has as its system PP2S-resistant M. tuberculosis.
The test system of experiment [2] is PP1S-resistant M. tuberculosis.
The subject of the next experiment is M. tuberculosis H37Rv. The settings on record: at 200 μg/ml and above.

Values after ≈ are worked out from the molar mass of the structure shown. A value given as a limit tells only on which side of the number the result lay.

In general, MIC refers to the smallest concentration in the dilution series that meets the test's criterion for growth inhibition. Lower therefore signals a more susceptible organism.

Take `CO[C@H]1/C=C/O[C@@]2(C)Oc3c(C)c(O)c4c(O)c(c(/C=N/N5CCN(C)CC5)c(O)c4c3C2=O)NC(=O)/C(C)=C\C=C\[C@H](C)[C@H](O)[C@@H](C)[C@@H](O)[C@@H](C)[C@H](OC(C)=O)[C@@H]1C` [RIF, rifampicin, reference compound]: the MIC in experiment [1] was found to be 0.2 µg/mL (≈ 0.243 µM); in experiment [2], 0.1 µg/mL (≈ 0.122 µM).

Regarding `[H]/N=C(/N)N[C@H]1[C@H](O)[C@@H](O)[C@H](O[C@@H]2O[C@@H](C)[C@](O)(C=O)[C@H]2O[C@@H]2O[C@@H](CO)[C@H](O)[C@@H](O)[C@@H]2NC)[C@@H](N/C(N)=N\[H])[C@@H]1O` [STR, streptomycin], the figures for the MIC in experiment [1] and in experiment [2] were 0.4 µg/mL (≈ 0.688 µM) and 0.2 µg/mL (≈ 0.344 µM), respectively.

Take `CC[C@@H](CO)NCCN[C@@H](CC)CO` [EMB, ethambutol]: the minimal inhibitory concentration (MIC) in experiment [1] and in experiment [2] was 1.6 µg/mL (≈ 7.83 µM) throughout.

On to `NNC(=O)c1ccncc1` [INH, isoniazid, reference compound], for which the MIC was 0.4 µg/mL (≈ 2.92 µM) in experiment [1] and 0.2 µg/mL (≈ 1.46 µM) in experiment [2].

`NC(=O)c1cnccn1` [PZA, pyrazinamide]: the MIC in experiment [1] and in experiment [2] was above 100 µg/mL each time.

Regarding `CCCCOc1ccc2cc(CN3C(=O)CC[C@H]3C(=O)OC)c3cc(OC)c(OC)cc3c2c1` [PP2S, Methyl (S)-1-((3-butoxy-6,7-dimethoxyphenanthren-9-yl)methyl)-5-oxopyrrolidine-2-carboxylate], the “occurrence of resistant strains” value in the experiment on M. tuberculosis H37Rv is “did not occur directly”. The MIC in experiment [1] and in experiment [2] was above 100 µg/mL each time.

Consider `COC(=O)[C@@H]1CCC(=O)N1Cc1cc2ccc(OC)cc2c2cc(OC)c(OC)cc12` [PP1S, (S)-N-[(2,3,6-Trimethoxy-10-phenanthryl)methyl]-pyroglutamic acid methyl ester], for which the MIC in experiment [1] and in experiment [2] was above 100 µg/mL in each case.

On to `COC(=O)[C@@H]1CCC(=O)N1Cc1cc2ccc(OCc3ccccc3)cc2c2cc(OC)c(OC)cc12` [PP3S, Methyl (S)-1-{[3-(Benzyloxy)-6,7-dimethoxy-9-phenanthryl]methyl}-5-oxopyrrolidine-2-carboxylate], for which the MIC in experiment [1] and in experiment [2] was above 100 µg/mL each time.
